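Briefly, cells in 96-well plates were exposed to five compound concentrations for 48 h, and endpoints were estimated by linear interpolation. TGI marks complete inhibition of growth.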
Experiments:
Experiment in all cases: inhibition of tumour cell growth, NCI panel, 48 h
[1] = system: SK-MEL-28 melanoma
[2] = system: UACC-62 melanoma
[3] = system: K-562 leukemia
[4] = system: KM20L2 colon
[5] = system: LXFL 529 NSCLC
[6] = system: U251 CNS
[7] = system: OVCAR-4 ovarian
[8] = system: A549 NSCLC
[9] = system: NCI-H460 lung
[10] = system: NCI-H226 lung
[11] = system: SF-295 CNS
[12] = system: NCI-H23 lung
[13] = system: LOX IMVI melanoma
[14] = system: DLD-1 colon
[15] = system: RXF-631 renal
[16] = system: HOP-18 NSCLC
[17] = system: SNB-19 CNS
[18] = system: M19-MEL melanoma
[19] = system: OVCAR-5 ovarian
[20] = system: A498 renal
[21] = system: SW-620 colon
[22] = system: HT29 colon
[23] = system: KM12 colon
[24] = system: CAKI-1 renal
[25] = system: SF-539 CNS
[26] = system: IGROV1 ovarian
[27] = system: RXF 393 renal
[28] = system: SK-MEL-5 melanoma
[29] = system: OVCAR-8 ovarian
[30] = system: SNB-75 CNS
[31] = system: MOLT-4 leukemia
[32] = system: SK-MEL-2 melanoma
[33] = system: EKVX NSCLC
[34] = system: XF 498 CNS
[35] = system: TK-10 renal
[36] = system: SN12C renal
[37] = system: DMS 114 small cell lung
[38] = system: OVCAR-3 ovarian
[39] = system: HOP-92 NSCLC
[40] = system: SK-OV-3 ovarian
[41] = system: HCT-15 colon
[42] = system: RPMI-8226 leukemia
[43] = system: SF-268 CNS
[44] = system: MALME-3M melanoma
[45] = system: UO-31 renal
[46] = system: COLO 205 colon
[47] = system: UACC-257 melanoma
[48] = system: CCRF-CEM leukemia
[49] = system: SNB-78 CNS
[50] = system: DMS 273 small cell lung
[51] = system: M14 melanoma
[52] = system: HCT-116 colon
[53] = system: HL-60(TB) leukemia
[54] = system: 786-0 renal
[55] = system: HCC-2998 colon
[56] = system: SR leukemia
[57] = system: NCI-H522 lung
[58] = system: ACHN renal
[59] = system: HOP-62 NSCLC

Question: Which TGI [1] does the source give for O=P(c1ccccc1)(c1ccccc1)C1CC=C(c2ccccc2)C2(CCCC2)C1 (configuration not stated) here?
Answer: Its TGI is over 100 µM.

Question: And the TGI [2]?
Answer: The TGI was over 100 µM.

Question: And the TGI [3]?
Answer: Its TGI is over 100 µM.

Question: And the TGI [4]?
Answer: The TGI was over 100 µM.

Question: What about the TGI [5] of the same compound?
Answer: The TGI was over 100 µM.

Question: And the TGI [6]?
Answer: Its TGI is over 100 µM.

Question: And the TGI [7]?
Answer: Its TGI is over 100 µM.

Question: What about the TGI [8] of the same compound?
Answer: Its TGI is over 100 µM.

Question: And the TGI [9]?
Answer: The TGI was over 100 µM.

Question: What about the TGI [10] of the same compound?
Answer: Its TGI is over 100 µM.

Question: What about the TGI [11] of the same compound?
Answer: The TGI was over 100 µM.

Question: What about the TGI [12] of the same compound?
Answer: Its TGI is over 100 µM.

Question: What about the TGI [13] of the same compound?
Answer: Its TGI is over 100 µM.

Question: What about the TGI [14] of the same compound?
Answer: Its TGI is over 100 µM.

Question: And the TGI [15]?
Answer: The TGI was over 100 µM.

Question: What about the TGI [16] of the same compound?
Answer: The TGI was 76.9 µM.

Question: And the TGI [17]?
Answer: Its TGI is over 100 µM.

Question: And the TGI [18]?
Answer: Its TGI is over 100 µM.

Question: What about the TGI [19] of the same compound?
Answer: The TGI was over 100 µM.

Question: And the TGI [20]?
Answer: Its TGI is over 100 µM.

Question: What about the TGI [21] of the same compound?
Answer: The TGI was over 100 µM.

Question: What about the TGI [22] of the same compound?
Answer: The TGI was over 100 µM.

Question: What about the TGI [23] of the same compound?
Answer: The TGI was over 100 µM.

Question: And the TGI [24]?
Answer: Its TGI is over 100 µM.

Question: What about the TGI [25] of the same compound?
Answer: Its TGI is over 100 µM.

Question: What about the TGI [26] of the same compound?
Answer: The TGI was over 100 µM.

Question: What about the TGI [27] of the same compound?
Answer: Its TGI is over 100 µM.

Question: And the TGI [28]?
Answer: Its TGI is over 100 µM.

Question: What about the TGI [29] of the same compound?
Answer: Its TGI is over 100 µM.

Question: What about the TGI [30] of the same compound?
Answer: Its TGI is over 100 µM.

Question: What about the TGI [31] of the same compound?
Answer: The TGI was 53.1 µM.

Question: What about the TGI [32] of the same compound?
Answer: The TGI was over 100 µM.

Question: And the TGI [33]?
Answer: Its TGI is over 100 µM.

Question: What about the TGI [34] of the same compound?
Answer: Its TGI is over 100 µM.

Question: And the TGI [35]?
Answer: The TGI was over 100 µM.

Question: What about the TGI [36] of the same compound?
Answer: The TGI was over 100 µM.

Question: And the TGI [37]?
Answer: Its TGI is over 100 µM.

Question: And the TGI [38]?
Answer: The TGI was over 100 µM.

Question: What about the TGI [39] of the same compound?
Answer: Its TGI is 67.5 µM.

Question: What about the TGI [40] of the same compound?
Answer: The TGI was over 100 µM.

Question: And the TGI [41]?
Answer: Its TGI is over 100 µM.

Question: And the TGI [42]?
Answer: Its TGI is 52.1 µM.

Question: And the TGI [43]?
Answer: The TGI was over 100 µM.

Question: What about the TGI [44] of the same compound?
Answer: The TGI was over 100 µM.

Question: What about the TGI [45] of the same compound?
Answer: Its TGI is 75.3 µM.

Question: What about the TGI [46] of the same compound?
Answer: Its TGI is 56.7 µM.

Question: And the TGI [47]?
Answer: Its TGI is over 100 µM.

Question: And the TGI [48]?
Answer: Its TGI is over 100 µM.

Question: What about the TGI [49] of the same compound?
Answer: Its TGI is over 100 µM.

Question: And the TGI [50]?
Answer: Its TGI is over 100 µM.

Question: What about the TGI [51] of the same compound?
Answer: Its TGI is over 100 µM.

Question: And the TGI [52]?
Answer: Its TGI is over 100 µM.

Question: What about the TGI [53] of the same compound?
Answer: Its TGI is 50.7 µM.

Question: What about the TGI [54] of the same compound?
Answer: The TGI was over 100 µM.

Question: What does the source list for C/C(=N\N=C(N)N)C(CN(CC(C)C)CC(C)C)C(=O)Nc1ccc(C)cc1C (configuration not stated)?
Answer: TGI [1]: > 100 µM; TGI [2]: > 100 µM; TGI [3]: > 100 µM; TGI [4]: > 100 µM; TGI [5]: > 100 µM; TGI [6]: > 100 µM; TGI [7]: > 100 µM; TGI [8]: > 100 µM; TGI [9]: > 100 µM; TGI [10]: > 100 µM; TGI [11]: > 100 µM; TGI [12]: > 100 µM; TGI [13]: > 100 µM; TGI [14]: > 100 µM; TGI [15]: > 100 µM; TGI [55]: > 100 µM; TGI [56]: > 100 µM; TGI [16]: > 100 µM; TGI [17]: > 100 µM; TGI [18]: > 100 µM; TGI [19]: > 100 µM; TGI [20]: > 100 µM; TGI [21]: > 100 µM; TGI [22]: > 100 µM; TGI [23]: > 100 µM; TGI [24]: > 100 µM; TGI [25]: > 100 µM; TGI [26]: > 100 µM; TGI [27]: > 100 µM; TGI [28]: > 100 µM; TGI [29]: > 100 µM; TGI [30]: > 100 µM; TGI [31]: > 100 µM; TGI [32]: > 100 µM; TGI [33]: > 100 µM; TGI [34]: > 100 µM; TGI [35]: > 100 µM; TGI [36]: > 100 µM; TGI [57]: > 100 µM; TGI [37]: > 100 µM; TGI [38]: > 100 µM; TGI [39]: > 100 µM; TGI [40]: > 100 µM; TGI [41]: > 100 µM; TGI [43]: > 100 µM; TGI [58]: > 100 µM; TGI [44]: > 100 µM; TGI [45]: > 100 µM; TGI [46]: > 100 µM; TGI [47]: > 100 µM; TGI [48]: > 100 µM; TGI [49]: > 100 µM; TGI [59]: > 100 µM; TGI [50]: > 100 µM; TGI [51]: > 100 µM; TGI [52]: > 100 µM; TGI [53]: > 100 µM; TGI [54]: > 100 µM
